Two molecules from ChEMBL document CHEMBL5209571, “Membrane potential based assay for SLC13A3 using HEK-293 SLC13A3 OE cells” (2022) can be followed below.

Each structure is given as a SMILES string.

In this assay the target is T1, Na(+)/dicarboxylate cotransporter 3 (Homo sapiens, UniProt Q8WWT9).
T1 sequence (Q8WWT9 whole entry): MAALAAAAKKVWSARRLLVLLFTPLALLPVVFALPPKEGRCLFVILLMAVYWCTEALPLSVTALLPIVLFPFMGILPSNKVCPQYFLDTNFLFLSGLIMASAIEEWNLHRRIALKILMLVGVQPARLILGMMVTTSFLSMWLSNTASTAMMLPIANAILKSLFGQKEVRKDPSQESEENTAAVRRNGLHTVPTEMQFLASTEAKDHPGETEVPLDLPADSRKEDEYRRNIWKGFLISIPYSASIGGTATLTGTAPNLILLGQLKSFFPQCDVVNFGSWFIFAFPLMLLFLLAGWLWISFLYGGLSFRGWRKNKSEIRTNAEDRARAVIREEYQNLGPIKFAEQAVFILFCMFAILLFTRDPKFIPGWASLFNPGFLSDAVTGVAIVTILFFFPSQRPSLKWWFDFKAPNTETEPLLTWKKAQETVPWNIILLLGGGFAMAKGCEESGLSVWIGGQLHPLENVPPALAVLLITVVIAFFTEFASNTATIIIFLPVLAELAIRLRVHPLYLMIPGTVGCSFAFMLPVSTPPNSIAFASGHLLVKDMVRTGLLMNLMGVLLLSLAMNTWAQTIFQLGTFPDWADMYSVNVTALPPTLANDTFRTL
The assay is described as follows: Substrate uptake by the Na(+)/Dicarboxylate Cotransporter 3 (NADC3, SLC13A3) as assessed by the fluorescent FLIPR membrane potential dye in HEK-293 JumpIN-SLC13A3 cells (PubChem AID: 1794820). It is filed as functional, cell-based, HEK293.

What is called EC50 is the concentration that produces a half-maximal response. `O=C(O)CCC(=O)C(=O)O` [ALPHA-KETOGLUTARIC ACID] gave an EC50 of 54 µM.

In turn, `O=C(O)CCC(=O)O` [SUCCINIC ACID] displayed a half-maximal effective concentration (EC50) of 107 µM.
